Data from patent US20250001107A1, “BREATH-POWERED NASAL DEVICES FOR TREATMENT OF TRAUMATIC BRAIN INJURY (TBI), INCLUDING CONCUSSION, AND METHODS” (Oragenics, Inc., priority 2021, published 2025).

What was measured:
[1] = preclinical studies of neuroprotective effects; format: in vivo
[2] = test system: Animal models of concussion; assay: animal models of concussion, behavioral pathology; format: in vivo
lipophilicity = format: physicochemical
[3] = blood-brain barrier crossing

SMILES: CC(=O)[C@@H]1CCC2C3CCC4=CC(=O)CC[C@H]4C3CC[C@]21C (single isomer, unassigned) [ent-19-norprogesterone, ent-19-norpregn-4-ene-3,20-dione]
- neuroprotective effects compared to related neurosteroids [1]: equivalent, if not superior, neuroprotective effects compared to related neurosteroids
- behavioral pathology associated with brain injury symptoms [2]: reduces the behavioral pathology associated with brain injury symptoms such as memory impairment, anxiety, and motor/sensory performance
- lipophilicity (lipophilicity): lipophilic
- crossing of the blood-brain barrier [3]: can easily cross the blood-brain barrier
